Source: patent US8143394B2, “Pyrido(3,2-d)pyrimidines useful for treating viral infections” (Gilead Sciences, Inc., priority 2006, dated 2012)

How the values were obtained:
HCV replicon = assay: Anti-HCV replicon assay (EC50, luciferase readout); assay type: cell-based; details: Hepatitis C virus, 72 h; human hepatoma Huh-7 cell line harbouring a HCV replicon; 3 days; luciferase; read-out: EC50
Description: (§1) The anti-HCV activity of the pyrido[3,2-d]pyrimidine derivatives of this invention was tested in a human hepatoma Huh-7 cell line harbouring a HCV replicon. The assay comprised the following steps:
(§2) Step 1: Compound Preparation and Serial Dilution
(§3) • 1. for water soluble pyrido[3,2-d]pyrimidine derivatives, a volume of 500 μL of solution in cell media (DMEM, 10% FBS, P/S, L-Glutamine) was prepared with a concentration being twice the concentration of the starting final serial dilution concentration. A volume of 150 μL of the solution was added to the pre-specified wells in column 1 of a 96-well cell culture plate (PerkinElmer, white plate, cat. #6005181, for EC50 assay; black plate, cat. #6005182 for CC50 assay). The rest of the plate, columns 2-12, was filled with 100 μL of cell media. The plate was then placed on a Precision 2000 Workstation to start the serial dilution. Compounds were diluted three times each step from column 1 to column 10. Column 11 was used as a blank control (no compound added). • 2. for pyrido[3,2-d]pyrimidine derivatives requiring DMSO to dissolve, serial dilution is performed in 50% DMSO in a 384-well plate. A solution containing a compound at 100-fold concentration of the starting final serial dilution concentration was prepared in 50% DMSO and added to the pre-specified wells in column 1 of a polypropylene 384-well plate. The plate was then placed on a Precision 2000 Workstation to start the serial dilution. After the serial dilution, a volume of 2 μL of the solution was transferred from the 384-well plate to a 96-well cell culture plate containing 100 μL of cell media on a Biomek FX Workstation. The DMSO concentration in the final assay condition was 0.5% after cells are added to the plate and the total volume in each well is brought to 200 μL. Step 2: to each well of the serial dilution plate prepared above, 100 μL of cell media containing 6000 suspended Huh-7 HCV replicon cells was added with a Multidrop workstation. The plates were incubated for 3 days at 37° C. with 5% CO2. Step 3: Detection: • a) for the EC50 assay, the media in a 96-well cell culture plate was aspirated with a Biotek EL405 plate-washer. A volume of 200 μL of a solution containing a 1:1 mixture of cell-lysis buffer (Promega, Luciferase Cell Culture Lysis 5X Reagent, cat. #E1531) and luciferase substrate solution (Promega, Luciferase Assay, cat. # E4550) was added to each well of the plate with Multidrop. The plate was incubated for 30 minutes at room temperature before the luminescence signal was measured with a TopCount plate-reader. • b) for the CC50 assay, a volume of 100 μL of pre-mixed CellTiter-Glo (Promega, cat. # G7572) solution is added directly to the cell culture in each well of the plate and the luminescence signal is measured with a TopCount plate-reader after 10 minutes of incubation at room temperature.
(§4) Results in table 13 are expressed by the following data: • the 50% effective concentration (EC50), i.e. the concentration that protects 50% of the cell monolayer from virus-induced cythopathic effect, and • the 50% cytostatic concentration (CC50), i.e. the concentration that results in 50% inhibition of cell growth.

[1] = CC50 assay (CellTiter-Glo) in Huh-7 HCV replicon cells; assay type: cell-based, human; details: human, 50% cytostatic concentration
Description: as §1, §2, §3, §4

Compound: CC(C)C(=O)Nc1ccc(-c2ccc3nc(N)nc(NCCS(C)(=O)=O)c3n2)cc1 [Example 5, N-{4-[2-Amino-4-(2-methanesulfonyl-ethylamino)-pyrido[3,2-d]pyrimidin-6-yl]-phenyl}-isobutyramide]
- EC50 (HCV replicon): < 300 nM
- CC50 at 3 days [1]: > 20 µM

Compound: CONC(=O)c1ccc(-c2ccc3nc(N)nc(OC(C)C)c3n2)cc1 [Example 70, 4-[2-Amino-4-isopropoxy-pyrido[3,2-d]pyrimidin-6-yl]-N-methoxy-benzamide]
- EC50 (HCV replicon): < 300 nM
- CC50 at 3 days [1]: > 20 µM

Compound: COCCNc1nc(N)nc2ccc(-c3ccc(NC(=O)C(C)C)cc3)nc12 [Example 9, N-{4-[2-Amino-4-(2-methoxy-ethylamino)-pyrido[3,2-d]pyrimidin-6-yl]-phenyl}-isobutyramide]
- EC50 (HCV replicon): < 300 nM
- CC50 at 3 days [1]: 10 to 20 µM

Compound: CNC(=O)c1ccc(-c2ccc3nc(N)nc(OC(C)C)c3n2)cc1Cl [Example 71, 4-(2-Amino-4-isopropoxy-pyrido[3,2-d]pyrimidin-6-yl)-2-chloro-N-methyl-benzamide]
- EC50 (HCV replicon): > 1000 nM
- CC50 at 3 days [1]: > 20 µM

Compound: CC(C)(N)C(=O)Nc1ccc(-c2ccc3nc(N)nc(O[C@@H]4CCOC4)c3n2)cc1 [Example 25, 2-Amino-N-{4-[2-amino-4-(tetrahydro-furan-3-yloxy)-pyrido[3,2-d]pyrimidin-6-yl]-phenyl}-2-methyl-propionamide]
- EC50 (HCV replicon): < 300 nM
- CC50 at 3 days [1]: 10 to 20 µM

Compound: COCCOc1nc(N)nc2ccc(-c3ccc(NC(=O)OC)cc3)nc12 [Example 19, {4-[2-Amino-4-(2-methoxy-ethoxy)-pyrido[3,2-d]pyrimidin-6-yl]-phenyl}-carbamic acid methyl ester]
- EC50 (HCV replicon): 300 to 1000 nM
- CC50 at 3 days [1]: > 20 µM

Compound: CC(C)(N)C(=O)Nc1ccc(-c2ccc3nc(N)nc(NCCS(C)(=O)=O)c3n2)cc1 [Example 1, 2-Amino-N-{4-[2-amino-4-(2-methanesulfonyl-ethylamino)-pyrido[3,2-d]pyrimidin-6-yl]-phenyl}-2-methyl-propionamide]
- EC50 (HCV replicon): < 300 nM
- CC50 at 3 days [1]: < 10 µM

Compound: CC(C)Oc1nc(N)nc2ccc(-c3ccc(C(=O)NC4CCCCC4)cc3)nc12 [Example 65, 4-(2-Amino-4-isopropoxy-pyrido[3,2-d]pyrimidin-6-yl)-N-cyclohexyl-benzamide]
- EC50 (HCV replicon): > 1000 nM
- CC50 at 3 days [1]: > 20 µM

Compound: COCCNc1nc(N)nc2ccc(-c3ccc(C(=O)NC4CC4)cc3)nc12 [Example 11, 4-[2-Amino-4-(2-methoxy-ethylamino)-pyrido[3,2-d]pyrimidin-6-yl]-N-cyclopropyl-benzamide]
- EC50 (HCV replicon): < 300 nM
- CC50 at 3 days [1]: > 20 µM

Compound: CCOc1nc(N)nc2ccc(-c3ccc(C(=O)NC(C)C)cc3)nc12 [Example 61, 4-(2-Amino-4-ethoxy-pyrido[3,2-d]pyrimidin-6-yl)-N-isopropyl-benzamide]
- EC50 (HCV replicon): 300 to 1000 nM
- CC50 at 3 days [1]: > 20 µM

Compound: CCOc1nc(N)nc2ccc(-c3ccc(-c4nnc(C)o4)cc3)nc12 [Example 85, 4-Ethoxy-6-[4-(5-methyl-[1,3,4]oxadiazol-2-yl)-phenyl]-pyrido[3,2-d]pyrimidin-2-ylamine]
- EC50 (HCV replicon): > 1000 nM
- CC50 at 3 days [1]: > 20 µM

Compound: CCOc1nc(N)nc2ccc(-c3ccc(NS(C)(=O)=O)cc3)nc12 [Example 43, N-[4-(2-Amino-4-ethoxy-pyrido[3,2-d]pyrimidin-6-yl)-phenyl]-methanesulfonamide]
- EC50 (HCV replicon): > 1000 nM
- CC50 at 3 days [1]: > 20 µM

Compound: CCOc1nc(N)nc2ccc(-c3ccc(NC(=O)C4CC4)cc3)nc12 [Example 39, Cyclopropanecarboxylic acid [4-(2-amino-4-ethoxy-pyrido[3,2-d]pyrimidin-6-yl)-phenyl]-amide]
- EC50 (HCV replicon): < 300 nM
- CC50 at 3 days [1]: > 20 µM

Compound: CCOc1nc(N)nc2ccc(-c3ccc(C(=O)Nc4ccccc4)cc3)nc12 [Example 87, 4-(2-Amino-4-ethoxy-pyrido[3,2-d]pyrimidin-6-yl)-N-phenyl-benzamide]
- EC50 (HCV replicon): > 1000 nM
- CC50 at 3 days [1]: > 20 µM

Compound: CCC(=O)Nc1ccc(-c2ccc3nc(N)nc(OCCOC)c3n2)cc1 [Example 18, N-{4-[2-Amino-4-(2-methoxy-ethoxy)-pyrido[3,2-d]pyrimidin-6-yl]-phenyl}-propionamide]
- EC50 (HCV replicon): 300 to 1000 nM
- CC50 at 3 days [1]: > 20 µM

Compound: CCOc1nc(N)nc2ccc(-c3cccc(NS(=O)(=O)C4CCS(=O)(=O)C4)c3)nc12 (centres unmarked) [Example 51, 1,1-Dioxo-tetrahydro-1?^6-thiophene-3-sulfonic acid [3-(2-amino-4-ethoxy-pyrido[3,2-d]pyrimidin-6-yl)-phenyl]-amide]
- EC50 (HCV replicon): < 300 nM
- CC50 at 3 days [1]: > 20 µM

Compound: CCOc1nc(N)nc2ccc(-c3ncc(N)s3)nc12 [Example 47, 6-(5-amino-thiazol-2-yl)-4-ethoxy-pyrido[3,2-d]pyrimidin-2-ylamine]
- EC50 (HCV replicon): < 300 nM
- CC50 at 3 days [1]: 10 to 20 µM

Compound: CN1CCCC1CCNC(=O)c1ccc(-c2ccc3nc(N)nc(O[C@H]4CCOC4)c3n2)cc1 (some centres unmarked) [Example 78, 4-[2-Amino-4-(tetrahydro-furan-3-yloxy)-pyrido[3,2-d]pyrimidin-6-yl]-N-[2-(1-methyl-pyrrolidin-2-yl)-ethyl]-benzamide]
- EC50 (HCV replicon): > 1000 nM
- CC50 at 3 days [1]: > 20 µM

Compound: CC(C)(N)C(=O)Nc1ccc(-c2ccc3nc(N)nc(O[C@@H]4CCOC4)c3n2)cc1F [Example 23, 2-Amino-N-{4-[2-amino-4-(tetrahydro-furan-3-yloxy)-pyrido[3,2-d]pyrimidin-6-yl]-2-fluoro-phenyl}-2-methyl-propionamide]
- EC50 (HCV replicon): < 300 nM
- CC50 at 3 days [1]: > 20 µM

Compound: COCCOc1nc(N)nc2ccc(-c3ccc(C(=O)NC(C)C)cc3)nc12 [Example 75, 4-[2-Amino-4-(2-methoxy-ethoxy)-pyrido[3,2-d]pyrimidin-6-yl]-N-isopropyl-benzamide]
- EC50 (HCV replicon): 300 to 1000 nM
- CC50 at 3 days [1]: > 20 µM

Compound: COCCOc1nc(N)nc2ccc(-c3ccc(C(=O)NOC)cc3)nc12 [Example 76, 4-[2-Amino-4-(2-methoxy-ethoxy)-pyrido[3,2-d]pyrimidin-6-yl]-N-methoxy-benzamide]
- EC50 (HCV replicon): 300 to 1000 nM
- CC50 at 3 days [1]: > 20 µM

Compound: CS(=O)(=O)CCNc1nc(N)nc2ccc(-c3cccc(NS(=O)(=O)C4CC4)c3)nc12 [Example 2, Cyclopropanesulfonic acid {3-[2-amino-4-(2-methanesulfonyl-ethylamino)-pyrido[3,2-d]pyrimidin-6-yl]-phenyl}-amide]
- EC50 (HCV replicon): 300 to 1000 nM
- CC50 at 3 days [1]: > 20 µM

Compound: CCOc1nc(N)nc2ccc(-c3ccc(NC(=O)CC)cc3)nc12 [Example 46, N-[4-(2-Amino-4-ethoxy-pyrido[3,2-d]pyrimidin-6-yl)-phenyl]-propionamide]
- EC50 (HCV replicon): < 300 nM
- CC50 at 3 days [1]: > 20 µM

Compound: CC(C)(CN1CCCC1)NC(=O)c1ccc(-c2ccc3nc(N)nc(O[C@H]4CCOC4)c3n2)cc1 [Example 80, 4-[2-Amino-4-(tetrahydro-furan-3-yloxy)-pyrido[3,2-d]pyrimidin-6-yl]-N-(1,1-dimethyl-2-pyrrolidin-1-yl-ethyl)-benzamide]
- EC50 (HCV replicon): < 300 nM
- CC50 at 3 days [1]: 10 to 20 µM

Compound: CCOc1nc(N)nc2ccc(-c3ccc(NC(=O)C(C)(C)N)cc3)nc12 [Example 37, 2-Amino-N-[4-(2-amino-4-ethoxy-pyrido[3,2-d]pyrimidin-6-yl)-phenyl]-2-methyl-propionamide]
- EC50 (HCV replicon): < 300 nM
- CC50 at 3 days [1]: > 20 µM

Compound: CCOc1nc(N)nc2ccc(-c3ccc(NC(=O)C4(O)CC4)cc3)nc12 [Example 33, 1-Hydroxy-cyclopropanecarboxylic acid [4-(2-amino-4-ethoxy-pyrido[3,2-d]pyrimidin-6-yl)-phenyl]-amide]
- EC50 (HCV replicon): < 300 nM
- CC50 at 3 days [1]: > 20 µM

Compound: Nc1nc(O[C@H]2CCOC2)c2nc(-c3ccc(C(=O)NCCN4CCCC4)cc3)ccc2n1 [Example 83, 4-[2-Amino-4-(tetrahydro-furan-3-yloxy)-pyrido[3,2-d]pyrimidin-6-yl]-N-(2-pyrrolidin-1-yl-ethyl)-benzamide]
- EC50 (HCV replicon): < 300 nM
- CC50 at 3 days [1]: > 20 µM

Compound: CCOc1nc(N)nc2ccc(-c3ccc(C(=O)NOC)cc3)nc12 [Example 60, 4-(2-Amino-4-ethoxy-pyrido[3,2-d]pyrimidin-6-yl)-N-methoxy-benzamide]
- EC50 (HCV replicon): > 1000 nM
- CC50 at 3 days [1]: > 20 µM
